For eleven compounds, inhibition and IC50 results are on record in ChEMBL document CHEMBL1148259, “2,4-Bis(octadecanoylamino)benzenesulfonic acid sodium salt as a novel scavenger receptor inhibitor with low molecular weight” (Bioorg Med Chem Lett, 2004).

Assay [1] has as its target T1, Macrophage scavenger receptor types I and II (Mus musculus) (UniProt P30204).
T1 sequence (whole entry): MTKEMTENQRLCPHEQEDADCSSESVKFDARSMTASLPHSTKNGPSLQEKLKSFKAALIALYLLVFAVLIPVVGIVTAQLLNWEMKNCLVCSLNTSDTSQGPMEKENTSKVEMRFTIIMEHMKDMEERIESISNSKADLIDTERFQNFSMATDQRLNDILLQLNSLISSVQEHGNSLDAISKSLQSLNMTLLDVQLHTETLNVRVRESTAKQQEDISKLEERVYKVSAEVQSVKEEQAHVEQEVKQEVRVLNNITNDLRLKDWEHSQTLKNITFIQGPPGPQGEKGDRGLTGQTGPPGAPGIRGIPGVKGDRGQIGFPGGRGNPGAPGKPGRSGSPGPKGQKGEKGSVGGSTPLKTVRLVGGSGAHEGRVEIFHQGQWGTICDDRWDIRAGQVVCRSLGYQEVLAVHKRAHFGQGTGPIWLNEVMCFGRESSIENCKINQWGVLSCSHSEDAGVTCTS
The assay can be described thus: Activity against acetyl-LDLbinding to scavenger receptor as percent inhibition of incorporation of DiI-acetyl-LDL into mouse peritoneal macrophages at 30 uM.

Assay [2] has as its target T1, Macrophage scavenger receptor types I and II (Mus musculus). Description: Percent inhibition of DiI-acetyl-LDL binding to scavenger receptor of mouse peritoneal macrophages at 100 uM. The class given is functional.
Assay [3] has the same target. The assay can be described thus: Activity against acetyl-LDLbinding to scavenger receptor as percent inhibition of incorporation of DiI-acetyl-LDL into mouse peritoneal macrophages at 10 uM.
Assay [4] shares this target. Description: Inhibitory activity against [125I]acetyl-LDL binding to mouse peritoneal macrophage scavenger receptor at 10 uM.
Assay [5] shares this target. The assay can be described thus: Inhibitory activity against [125I]-acetyl-LDL binding to mouse peritoneal macrophage scavenger receptor at 100 uM.
Assay [6] has the same target. Description: Inhibitory activity against [125I]acetyl-LDL binding to mouse peritoneal macrophage scavenger receptor at 30 uM.
The target in assay [7] is T2, Macrophage scavenger receptor types I and II (Mus musculus, UniProt P30204).
T2 sequence (P30204 whole entry): T1 sequence (whole entry)
The assay can be described thus: Inhibitory activity against [125I]acetyl-LDL binding to mouse peritoneal macrophage scavenger receptor.

One may read the inhibition as the percentage by which the read-out fell short of the control. Low values mean a weak effect, high ones a strong effect. On to `CCCCCCCCCCCCCCCCCCCCCC(=O)Nc1ccc(S(=O)(=O)O)c(NC(=O)CCCCCCCCCCCCCCCCCCCCC)c1`, for which the results for the inhibition in assay [1] and in assay [2] were 48% and 85.7%, respectively.

For the compound `CCCCCCCCCCCCCCCCCC(=O)NC(COS(=O)(=O)O)C(=O)NCCCCCCCCCCCCCC` (stereo not drawn), the inhibition in assay [3] amounted to 20.5%; in assay [1], 43.8%; in assay [2], 61.4%; in assay [4], 6.6%; in assay [5], 81.1%; in assay [6] it was 41.8%.

In general, IC50 refers to the midpoint of a concentration-inhibition curve. Low readings indicate inhibition by little substance, high ones a need for much substance. As for `CCCCCCCCCCCCCCCCCC(=O)Nc1ccc(S(=O)(=O)O)c(NC(=O)CCCCCCCCCCCCCCCCC)c1`, the inhibition in assay [3] is 57%; in assay [1] it was 72.5%; in assay [2], 84.6%. The compound further registered an IC50 in assay [7] of 2 µM.

In turn, `CCCCCCCCCC(=O)Nc1ccc(S(=O)(=O)O)c(NC(=O)CCCCCCCCC)c1` gave an inhibition in assay [2] of less than 10%.

Take `CCCCCCCCCCCCCCCCCC(=O)Nc1ccc(S(=O)(=O)O)cc1`: in assay [2], the inhibition was less than 10%.

As for `CCCCCCCCCCCCCC(=O)Nc1ccc(S(=O)(=O)O)c(NC(=O)CCCCCCCCCCCCC)c1`, the inhibition in assay [1] worked out at 48%; in assay [2], 66.6%.

Take `CCCCCCCCCCCCCCCCCC(=O)N1C[C@H](OS(=O)(=O)O)C[C@H]1C(=O)NCCCCCCCCCCCCCC`: the inhibition in assay [2] came to 23.7%.

On to `CCCCCCCCCCCCCCCCCC(=O)Nc1ccc(COS(=O)(=O)O)cc1NC(=O)CCCCCCCCCCCCCCCC`, for which, in assay [2], the inhibition was less than 10%.

As for `CCCCCCCCCCCCCCCCCC(=O)Nc1ccc(C(=O)O)c(NC(=O)CCCCCCCCCCCCCCCCC)c1`, the inhibition in assay [2] was less than 10%.

In turn, `CCCCCCCCCCCCCCCCCC(=O)Nc1ccc(NC(=O)CCCCCCCCCCCCCCCCC)c(S(=O)(=O)O)c1` registered an inhibition in assay [2] of 32.1%.

In the case of `CCCCCCCCCCCCCCCCCC(=O)Nc1cc(NC(=O)CCCCCCCCCCCCCCCCC)cc(S(=O)(=O)O)c1`, the inhibition is 18.5% in assay [3], 46.2% in assay [1] and 71.2% in assay [2].
